US11712416B2, “Solid oral pharmaceutical compositions for isoxazoline compounds” (Intervet Inc., priority 2012, dated 2023)
Converted amounts (≈) assume the structure as drawn. Read-outs that look alike come from different tables or passages of the source.

Experiments:
[1] = Blood plasma pharmacokinetic profile of isoxazoline compounds in two chewable formulations after a single oral administration in dogs (Example 8); type: in vivo; settings: beagle dogs; for Cmax / Tmax / AUC(0-t): dog, plasma; for AUC(0-t): read-out: AUC(0-168h)
Text: Pharmacokinetic Profile Following Oral Administration of Chewable Formulations of Isoxazoline Compounds
The objective of this study is to compare the blood plasma pharmacokinetic profile of three different isoxazoline compounds in two different chewable formulations after a single oral (PO) administration of in dogs.
The following compounds were formulated according to the invention. Specifically, the isoxazoline compound was first dissolved in a solvent, i.e. 2-pyrrolidone. This drug solution was then adsorbed onto the solid carrier, i.e. microcrystalline cellulose, which was incorporated into a solid oral dosage form as described in the specification with excipients as described in Table 3. Comparative example formulation ID No. 13-009, 13-011 and 13-013 contain the active drug substance incorporated as a solid that was manufactured as described in general in the specification without prior pre-dissolving the active ingredient and adsorption to the solid carrier.
The test compounds were administered orally to four beagle dogs per dose group for a total of twenty-four dogs.
Each animal was administered the tablet or chew by placing it in the back of the oral cavity over the tongue to initiate swallowing.
Plasma was obtained from the collected blood samples and analyzed for concentrations of the test compounds. Individual blood samples (approximately 4.5 mL per sample) were taken via jugular venipuncture into sodium-citrate tubes from all dogs for drug analysis. Blood samples were collected at the following time points: pretreatment (within 2 h prior to dosing) and approximately 1, 2, 4, 6, 8, 24, 48, 72 hours after dosing (15 min). A final blood sample was taken from each dog on Day 7 (2 h after the time of dosing on Day 0).
Pharmacokinetic analysis was performed on the plasma concentration data with the computer program Pharsight WinNonlin Enterprise, Version 4.0.1, or more recent update (Model 200: plasma data, extravascular input).

[2] = Solubility of the active (fluralaner) in formulation solvents; type: physicochemical; settings: organic solvent or mixture
[3] = single oral dose 10 mg/kg, Alternate Chew (compound dissolved in 2-pyrrolidone)
[4] = single oral dose 25 mg/kg, Control Chew (compound not dissolved)

SMILES	AUC(0-168h)/Dose [1, 3] [kg·ng·h/mL/mg]	Cmax/Dose [1, 3] [kg·ng/mL/mg]	AUC(0-168h)/Dose [1, 4] [kg·ng·h/mL/mg]	Cmax/Dose [1, 4] [kg·ng/mL/mg]	Cmax [1, 3] [ng/mL]	Tmax [1, 3] [h]	AUC(0-t) [1, 3] [µg·h/mL]	Cmax [1, 4] [ng/mL]	Tmax [1, 4] [h]	AUC(0-t) [1, 4] [µg·h/mL]	solubility ([2]; 2-pyrrolidone (2-pyrol), solvent 2-pyrrolidone, read-out: solubility in 2-pyrrolidone (2-pyrol)) [mg/mL]	solubility ([2]; dimethylacetamide (DMAC), solvent DMAC, read-out: solubility in dimethylacetamide (DMAC)) [mg/mL]
O=C(CNC(=O)c1ccc(C2=NOC(c3cc(Cl)cc(C(F)(F)F)c3)(C(F)(F)F)C2)c2ccccc12)NCC(F)(F)F (centres unmarked) [Compound B]	33416	321	16661	174	3210	15.5	334	4340	5	417		
Cc1cc(C2=NOC(c3cc(Cl)cc(Cl)c3)(C(F)(F)F)C2)sc1C(=O)NCC(=O)NCC(F)(F)F (centres unmarked) [Compound C]	32660	254	6573	63.5	2540	15.5	327	1590	27.5	164		
Cc1cc(C2=NOC(c3cc(Cl)cc(Cl)c3)(C(F)(F)F)C2)ccc1C(=O)NCC(=O)NCC(F)(F)F (centres unmarked) [Compound A-1443, 4-[5-(3,5-Dichlorophenyl)-5-trifluoromethyl-4,5-dihydroisoxazol-3-yl]-2-methyl-N-[(2,2,2-trifluoro-ethylcarbamoyl)-methyl]-benzamide]											775 (≈ 1390 mM)	792 (≈ 1420 mM)
Cc1cc(C2=NOC(c3cc(Cl)cc(Cl)c3)(C(F)(F)F)C2)ccc1C(=O)NC1CSC1 (centres unmarked) [Compound A]		1.71		0.768	17.1			19.2				
